Source: PubChem BioAssay AID330 (DTP/NCI, 2004)
“And” between values parts separate entries of the source, which are not always exact repeats. Identical values can stand only once. Inconclusive results and toxic doses are left out.

System: P388 leukemia ip, CD2F1 mice, survival T/C
Test: NCI In Vivo Anticancer Drug Screen. Data for tumor model P388 Leukemia (intraperitoneal) in CD2F1 (CDF1) mice
Settings: endpoint: median survival time, higher = longer survival
How it was run: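 Mice carrying the transplanted tumor received test compound or vehicle. Survival was recorded in each group, and the value is the treated-group measurement divided by that of the vehicle-treated control group.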

[1] = dose: 50.0 mg/kg/injection, schedule: Q01DX005 (ip), vehicle: Klucel (hydroxypropylcellulose) (HPC)
[2] = dose: 100.0 mg/kg/injection, schedule: Q01DX005 (ip), vehicle: Klucel (hydroxypropylcellulose) (HPC)
[3] = dose: 60.0 mg/kg/injection, schedule: Q01DX005 (ip), vehicle: Klucel (hydroxypropylcellulose) (HPC)
[4] = dose: 120.0 mg/kg/injection, schedule: Q01DX005 (ip), vehicle: Klucel (hydroxypropylcellulose) (HPC)
[5] = dose: 240.0 mg/kg/injection, schedule: Q01DX005 (ip), vehicle: Klucel (hydroxypropylcellulose) (HPC)
[6] = dose: 6.25 mg/kg/injection, schedule: Q01DX009 (ip), vehicle: saline with Tween-80
[7] = dose: 12.5 mg/kg/injection, schedule: Q01DX009 (ip), vehicle: saline with Tween-80
[8] = dose: 25.0 mg/kg/injection, schedule: Q01DX009 (ip), vehicle: saline with Tween-80
[9] = dose: 50.0 mg/kg/injection, schedule: Q01DX009 (ip), vehicle: Klucel (hydroxypropylcellulose) (HPC)
[10] = dose: 100.0 mg/kg/injection, schedule: Q01DX009 (ip), vehicle: Klucel (hydroxypropylcellulose) (HPC)

## CC(C)(C)N1OC2(c3ccccc3)OC3N(C(C)(C)C)OC4(c5ccccc5)OC1C2(c1ccccc1)C34c1ccccc1 (stereo not drawn)
dose: 60.0 mg/kg/injection, schedule: Q01DX005 (ip), vehicle: saline with Tween-80
  T/C: 111 % of control
dose: 120.0 mg/kg/injection, schedule: Q01DX005 (ip), vehicle: saline with Tween-80
  T/C: 87 % of control
dose: 240.0 mg/kg/injection, schedule: Q01DX005 (ip), vehicle: saline with Tween-80
  T/C: 86 % of control

## CSC1(SC2=NCCN2)SC2(NCCN2)S1
dose: 200.0 mg/kg/injection, schedule: Q01DX001 (ip), vehicle: Klucel (hydroxypropylcellulose) (HPC)
  T/C: 86 % of control
dose: 400.0 mg/kg/injection, schedule: Q01DX001 (ip), vehicle: Klucel (hydroxypropylcellulose) (HPC)
  T/C: 90 % of control

## CNC(=O)N1CC2CCC(C)(C1)OC2(C)C (stereo not drawn)
[1]
  T/C: 97 % of control
[2]
  T/C: 100 % of control and 103 % of control
dose: 200.0 mg/kg/injection, schedule: Q01DX005 (ip), vehicle: Klucel (hydroxypropylcellulose) (HPC)
  T/C: 103 % of control and 106 % of control

## CCOC(=O)C1=C(O)C[C@]2(O)C3CC=C(C)[C@@H]4CCO[C@](OC)(C[C@H]2C1)[C@]34C(=O)OC (stereo partly drawn)
dose: 50.0 mg/kg/injection, schedule: Q01DX005 (ip), vehicle: saline with Tween-80
  T/C: 100 % of control
dose: 100.0 mg/kg/injection, schedule: Q01DX005 (ip), vehicle: saline with Tween-80
  T/C: 96 % of control

## O=[N+]([O-])c1ccc(N2N=NC(CN3CCOCC3)C2N2CCOCC2)cc1 (stereo not drawn)
[3]
  T/C: 111 % of control
[4]
  T/C: 117 % of control
[5]
  T/C: 118 % of control

## Clc1ccc2nc(CBr)cnc2c1
[6]
  T/C: 104 % of control
[7]
  T/C: 104 % of control
[8]
  T/C: 100 % of control

## CCn1c(=O)c2cn[nH]c2n(CC)c1=O
[9]
  T/C: 108 % of control
[10]
  T/C: 104 % of control

## CC1(C)CC(Nc2ccccc2)=CC(N2CCOCC2)=N1
[1]
  T/C: 103 % of control
[2]
  T/C: 100 % of control

## CCCCCCCCCc1ccc(OCCOCCOCCOCCOCCOCCOCCOCCOCCOC(C)N2CCCC2=O)cc1 (stereo not drawn)
[6]
  T/C: 110 % of control
[7]
  T/C: 115 % of control
[8]
  T/C: 120 % of control

## Oc1ccc(Nc2ccc(N(CCCl)CCCl)cc2)c2ccccc12
dose: 6.25 mg/kg/injection, schedule: Q01DX001 (ip), vehicle: Klucel (hydroxypropylcellulose) (HPC)
  T/C: 123 % of control
dose: 50.0 mg/kg/injection, schedule: Q01DX001 (ip), vehicle: Klucel (hydroxypropylcellulose) (HPC)
  T/C: 192 % of control and 195 % of control

## CCCCCCCCCSc1nc2ccc(NC(=O)/C=C/C(=O)O)cc2s1
dose: 12.5 mg/kg/injection, schedule: Q01DX009 (ip), vehicle: Klucel (hydroxypropylcellulose) (HPC)
  T/C: 97 % of control
dose: 25.0 mg/kg/injection, schedule: Q01DX009 (ip), vehicle: Klucel (hydroxypropylcellulose) (HPC)
  T/C: 107 % of control
[9]
  T/C: 106 % of control and 107 % of control
[10]
  T/C: 113 % of control

## C/C(=C\CC1C(=O)N(c2ccccc2)N(c2ccccc2)C1=O)CO
[3]
  T/C: 100 % of control
[4]
  T/C: 100 % of control
[5]
  T/C: 91 % of control

## CC1CCC(C(C)C)C(NC(=O)c2ccc[n+](C)c2)C1 (stereo not drawn)
dose: 25.0 mg/kg/injection, schedule: Q04DX002 (ip), vehicle: saline
  T/C: 97 % of control
dose: 50.0 mg/kg/injection, schedule: Q04DX002 (ip), vehicle: saline
  T/C: 97 % of control

## CC(CCOc1ccc2ccc(=O)oc2c1)C1=CC(=O)C(C)(C)O1 (stereo not drawn)
[7]
  T/C: 103 % of control
[8]
  T/C: 90 % of control
dose: 50.0 mg/kg/injection, schedule: Q01DX009 (ip), vehicle: saline with Tween-80
  T/C: 116 % of control
dose: 100.0 mg/kg/injection, schedule: Q01DX009 (ip), vehicle: saline with Tween-80
  T/C: 116 % of control

## COc1ccccc1C1OC2=Nc3cc(C)c(C)cc3NC2C1=O (stereo not drawn)
dose: 30.0 mg/kg/injection, schedule: Q01DX005 (ip), vehicle: Klucel (hydroxypropylcellulose) (HPC)
  T/C: 96 % of control
[3]
  T/C: 93 % of control
[4]
  T/C: 90 % of control
[5]
  T/C: 95 % of control

## O=C1C=C(Nc2ccccc2)CCC1
dose: 100.0 mg/kg/injection, schedule: Q04DX003 (ip), vehicle: saline with Tween-80
  T/C: 100 % of control
dose: 200.0 mg/kg/injection, schedule: Q04DX003 (ip), vehicle: saline with Tween-80
  T/C: 105 % of control
dose: 400.0 mg/kg/injection, schedule: Q04DX003 (ip), vehicle: saline with Tween-80
  T/C: 105 % of control

## [O-][n+]1cc2ccccc2c2ccccc21
dose: 100.0 mg/kg/injection, schedule: Q04DX003 (ip), vehicle: saline
  T/C: 100 % of control
dose: 200.0 mg/kg/injection, schedule: Q04DX003 (ip), vehicle: saline
  T/C: 100 % of control
dose: 400.0 mg/kg/injection, schedule: Q04DX003 (ip), vehicle: saline
  T/C: 99 % of control
